Measurements taken from patent publication US10307353B2, “1-phenylmono- or -polyhydroxypropane compounds, compositions and cosmetic uses thereof” (L'OREAL, priority 2015, dated 2019).

System: AMPK (phospho-AMPK Thr-172)
Assay: Level of expression of p-AMPK (Thr-172) in normal human epidermal keratinocytes, Western blotting
Format: cell-based
Details: for p-AMPK/AMPK ratio relative to the control (100%): 18 hours incubation; for p-AMPK/GAPDH ratio relative to the control (100%): 48 hours incubation
Description: Normal human epidermal keratinocytes are seeded at 180 000 cells per well and cultured in SFM culture medium (supplier Gibco) supplemented with 0.25 ng/ml EGF, 25 μg/ml of pituitary extract and 25 μg/ml gentamicin, up to confluence, and incubated in a humid oven at 37° C. and 5% CO2. The culture medium was then replaced with test medium (SFM (Gibco) supplemented with 25 μg/ml gentamicin) containing or not containing (control) the test compounds, or the references (AICAR—(5-amino-4-imidazole carboxamide riboside) at 500 μM). The cells were then incubated for 18 or 48 hours. The level of expression of p-AMPK was analyzed by Western blotting. At the end of the incubation, the proteins were extracted and quantified and then separated by electrophoresis on 10% polyacrylamide gel and then transferred onto a nitrocellulose membrane. […] Between each successive revelation, the antibodies were detached using a “stripping” buffer. The images were acquired with a Fuji LAS 3000 chemiluminescence scanner (Fujifilm) and the densitometric analyses were performed using the Multigauge software (Fujifilm). An increase in the phosphorylated form of AMPK (active form of the enzyme) relative to the control is evaluated in this test. Results Expressed in the form of the p-AMPK/GAPDH ratio relative to the control (100%): […]

Row | SMILES | p-AMPK/AMPK ratio relative to the control (100%) (500 μM) | p-AMPK/GAPDH ratio relative to the control (100%) (500 μM) [%] | p-AMPK/GAPDH ratio relative to the control (100%) (1 μM) [%] | p-AMPK/GAPDH ratio relative to the control (100%) (10 μM) [%] | p-AMPK/GAPDH ratio relative to the control (100%) (100 μM) [%]
1 | NC(=O)c1ncn([C@@H]2O[C@H](CO)[C@@H](O)[C@H]2O)c1N [AICAR, 5-amino-4-imidazole carboxamide riboside, reference compound] | 177% ± 31% | 279 ± 96 | – | – | –
2 | COc1cc(CC(C)O)ccc1O (stereo not drawn) [Compound 1] | 132% ± 11% | – | – | – | –
3 | COc1cc(CC(O)CO)ccc1O (stereo not drawn) [Compound 5] | – | – | 116 ± 17 | 149 ± 25 | 136 ± 14
